What follows are compounds tested on Utrophin A promoter linked to a luciferase reporter gene (H2K/mdx/Utro A reporter cell line) (assay: Luciferase reporter assay (murine H2K cells)). Conditions: Mus musculus; Table 1; murine H2K mdx myoblasts, compound final concentration 10 μM, 48 hrs; read-out: Activity (luciferase reporter assay, relative to control).
Format: cell-based
Method: 1. Luciferase Reporter Assay (Murine H2K Cells)
The cell line used for the screen is an immortalized mdx mouse H2K cell line that has been stably transfected with a plasmid containing ≈5 kb fragment of the Utrophin A promoter including the first untranslated exon linked to a luciferase reporter gene (see FIG. 1).
Under conditions of low temperature and interferon containing media, the cells remain as myoblasts. These are plated into 96 well plates and cultured in the presence of compound for three days. The level of luciferase is then determined by cell lysis and reading of the light output from the expressed luciferase gene utilising a plate luminometer.
The H2K/mdx/Utro A reporter cell line was passaged twice a week until ≦30% confluent. The cells were grown at 33° C. in the presence of 10% CO2
The H2K/mdx/Utro A reporter cell line cells were plated out into 96 well plates (Falcon 353296, white opaque) at a density of approximately 5000 cells/well in 190 μl normal growth medium. The plates were then incubated at 33° C. in the presence of 10% CO2 for 24 hrs.
Compounds were dosed by adding 10 μl of diluted compound to each well giving a final concentration of 10 μM. The plates were then incubated for a further 48 hrs
Cells were then lysed in situ following the manufacture's protocols (Promega Steady-Glo Luciferase Assay System (E2520). Then counted for 10 seconds using a plate luminometer (Victorl420).

First: Nc1ccc2nn(-c3ccc(Cl)cc3)nc2c1 [Example 38, 2-(4-chlorophenyl)-2H-benzo[d][1,2,3]triazol-5-amine]
Second: CN(C)c1ccc(-n2nc3ccc(N)cc3n2)cc1 [Example 41, 2-(4-(dimethylamino)phenyl)-2H-benzo[d][1,2,3]triazol-5-amine]
The activity at 10 µM of the first is lower: < 200% for the first, 301 to 400% for the second.

Compared with `CCN(CC)c1ccc(-n2nc3ccc(NC(=O)c4ccccc4)cc3n2)cc1` [Example 29, N-(2-(4-(diethylamino)phenyl)-2H-benzo[d][1,2,3]triazol-5-yl)benzamide], `CCN(CC)c1ccc(-n2nc3ccc(NC(=O)c4cccnc4)cc3n2)cc1` [Example 20, N-(2-(4-(diethylamino)phenyl)-2H-benzo[d][1,2,3]triazol-5-yl)nicotinamide] is higher in activity at 10 µM: < 200% for the first, 201 to 300% for the second.

Going from `CS(=O)(=O)c1ccc2nn(-c3ccc(Cl)cc3)[n+]([O-])c2c1` [Example 47, 2-(4-chlorophenyl)-6-(methylsulfonyl)-2H-benzo[d][1,2,3]triazole 1-oxide] to `CC(C)S(=O)(=O)c1ccc2cn(-c3ccc(Cl)cc3)nc2c1` [Example 56, 2-(4′-Chlorophenyl)-6-(isopropylsulfonyl)-2H-indazole], the activity at 10 µM rises from < 200% to > 401%.

`CCN(CC)c1ccc(-n2nc3ccc(NC(=O)c4ccco4)cc3n2)cc1` [Example 27, N-(2-(4-(diethylamino)phenyl)-2H-benzo[d][1,2,3]triazol-5-yl)furan-2-carboxamide] and `CCN(CC)c1ccc(-n2nc3cc(C)c(NC(=O)c4ccco4)cc3n2)cc1` [Example 18, N-(2-(4-(diethylamino)phenyl)-6-methyl-2H-benzo[d][1,2,3]triazol-5-yl)furan-2-carboxamide] cannot be ordered by activity at 10 µM: < 200% for the first, < 200% for the second.

`CCN(CC)c1ccc(-n2nc3ccc(NC(=O)c4ccc(OC)cc4)cc3n2)cc1` [Example 30, N-(2-(4-(diethylamino)phenyl)-2H-benzo[d][1,2,3]triazol-5-yl)-4-methoxybenzamide] and `CCN(CC)c1ccc(-n2nc3ccc(NC(=O)c4ccc(N(C)C)cc4)cc3n2)cc1` [Example 33, N-(2-(4-(diethylamino)phenyl)-2H-benzo[d][1,2,3]triazol-5-yl)-4-(dimethylamino)benzamide] cannot be ordered by activity at 10 µM: < 200% for the first, < 200% for the second.

First: Cc1cc2nn(-c3ccc(Cl)cc3)nc2cc1NC(=O)c1cccnc1 [Example 1, N-(2-(4-chlorophenyl)-6-methyl-2H-benzo[d][1,2,3]triazol-5-yl)nicotinamide]
Second: Cc1cc2nn(-c3ccc(Cl)cc3)nc2cc1NC(=O)c1ccccc1 [Example 3, N-(2-(4-chlorophenyl)-6-methyl-2H-benzo[d][1,2,3]triazol-5-yl)benzamide]
The activity at 10 µM of the first is higher: 301 to 400% for the first, < 200% for the second.

First: CC(=O)Nc1ccc2nn(-c3ccc(Cl)cc3)nc2c1 [Example 39, N-(2-(4-chlorophenyl)-2H-benzo[d][1,2,3]triazol-5-yl)acetamide]
Second: CCCC(=O)Nc1ccc2nn(-c3ccc(Cl)cc3)nc2c1 [Example 36, N-(2-(4-chlorophenyl)-2H-benzo[d][1,2,3]triazol-5-yl)butyramide]
The activity at 10 µM of the first is higher: > 401% for the first, 301 to 400% for the second.

Compared with `CCN(CC)c1ccc(-n2nc3ccc(N)cc3n2)cc1` [Example 19, 2-(4-(diethylamino)phenyl)-2H-benzo[d][1,2,3]triazol-5-amine], `CCC(=O)Nc1ccc2nn(-c3ccc(N(CC)CC)cc3)nc2c1` [Example 23, N-(2-(4-(diethylamino)phenyl)-2H-benzo[d][1,2,3]triazol-5-yl)propionamide] is lower in activity at 10 µM: 301 to 400% for the first, < 200% for the second.

First: CCC(=O)Nc1cc2nn(-c3ccc(Cl)cc3)nc2cc1C [Example 7, N-(2-(4-chlorophenyl)-6-methyl-2H-benzo[d][1,2,3]triazol-5-yl)propionamide]
Second: Cc1cc2nn(-c3ccc(Cl)cc3)nc2cc1NC(=O)C(C)C [Example 10, N-(2-(4-chlorophenyl)-6-methyl-2H-benzo[d][1,2,3]triazol-5-yl)isobutyramide]
The activity at 10 µM of the first is lower: < 200% for the first, 201 to 300% for the second.

`CCN(CC)c1ccc(-n2nc3ccc(NC(=O)C(C)C)cc3n2)cc1` [Example 26, N-(2-(4-(diethylamino)phenyl)-2H-benzo[d][1,2,3]triazol-5-yl)isobutyramide] and `CCN(CC)c1ccc(-n2nc3cc(C)c(NC(=O)C(C)C)cc3n2)cc1` [Example 17, N-(2-(4-(diethylamino)phenyl)-6-methyl-2H-benzo[d][1,2,3]triazol-5-yl)isobutyramide] cannot be ordered by activity at 10 µM: < 200% for the first, < 200% for the second.

First: CCS(=O)(=O)c1ccc2nn(-c3ccc(Cl)c(Cl)c3)nc2c1 [Example 51, 2-(3′,4′-dichlorophenyl)-5-(ethylsulfonyl)-benzotriazole]
Second: CS(=O)(=O)c1ccc2nn(-c3ccc4ccccc4c3)nc2c1 [Example 55, 5-(Methylsulfonyl)-2-(naphthalen-2-yl)-2H-benzo[d][1,2,3]triazole]
The activity at 10 µM of the first is lower: 301 to 400% for the first, > 401% for the second.

`COc1ccccc1C(=O)Nc1cc2nn(-c3ccc(Cl)cc3)nc2cc1C` [Example 5, N-(2-(4-chlorophenyl)-6-methyl-2H-benzo[d][1,2,3]triazol-5-yl)-2-methoxybenzamide] and `CCC(=O)Nc1cc2nn(-c3ccc(N(CC)CC)cc3)nc2cc1C` [Example 14, N-(2-(4-(diethylamino)phenyl)-6-methyl-2H-benzo[d][1,2,3]triazol-5-yl)propionamide] cannot be ordered by activity at 10 µM: < 200% for the first, < 200% for the second.

With `CCCCC(=O)Nc1cc2nn(-c3ccc(N(CC)CC)cc3)nc2cc1C` [Example 16, N-(2-(4-(diethylamino)phenyl)-6-methyl-2H-benzo[d][1,2,3]triazol-5-yl)pentanamide] the activity at 10 µM was < 200%.

Same assay, conditions: Mus musculus; Table 2; murine H2K mdx myoblasts, compound final concentration 10 μM, 48 hrs; read-out: Activity (luciferase reporter assay, relative to control)

`CC(=O)Nc1cc2nn(-c3ccccc3)nc2cc1C` [Example 67, N-(6-methyl-2-phenyl-2H-benzo[d][1,2,3]triazol-5-yl)acetamide] and `CC(=O)Nc1ccc2nn(-c3ccc(F)cc3)nc2c1` [Example 69, N-(2-(4-fluorophenyl)-2H-benzo[d][1,2,3]triazol-5-yl)acetamide] fall in the same range of activity at 10 µM: 201 to 300% for the first, 201 to 300% for the second.

First: CCOc1ccc(-n2nc3cc(C)c(N)cc3n2)cc1 [Example 64, 2-(4-ethoxyphenyl)-6-methyl-2H-benzo[d][1,2,3]triazol-5-amine]
Second: Cc1ccc(-n2nc3ccc(N)cc3n2)cc1C [Example 63, 2-(3,4-dimethylphenyl)-2H-benzo[d][1,2,3]triazol-5-amine]
The activity at 10 µM of the first is higher: 201 to 300% for the first, < 200% for the second.
